Here are results for eight compounds from patent US8940800B2, “Pharmaceutical compositions with enhanced performance” (Bend Research, Inc., priority 2004, dated 2015).

“And” between values parts separate entries of the source, which are not always exact repeats. Equal entries are not always repeated. Where only a bound is given, the exact number is not on record here.

Data set [1] in a line: In vitro dissolution test, microcentrifuge method, PBS (Example 1). It is filed as physicochemical. The note with it: PBS pH 6.5, 37° C.; for AUC90: 90 minutes; for C1200: concentration at 1200 minutes; for MDC,90: maximum concentration during first 90 minutes. The protocol:
Dispersions 2, 3, 4, and 10 were evaluated in in vitro dissolution tests using a microcentrifuge method. In this method, 3.6 mg of the spray-dried dispersions was added to a 2-mL microcentrifuge tube. The tube was placed in a 37° C. sonicating bath, and 1.8 mL of phosphate-buffered saline (PBS) at pH 6.5 and 290 mOsm/kg was added. The samples were quickly mixed using a vortex mixer for about 90 seconds. The theoretical maximum concentration of drug if all the drug dissolved was 1000 μg/mL. The samples were centrifuged at 13,000 G at 37° C. for 1 minute. The resulting supernatant solution was then sampled (100 μL) and diluted with 200 μL methanol and then analyzed by HPLC. The tubes were then mixed on the vortex mixer and allowed to stand undisturbed at 37° C. until the next sample. Samples were collected at 4, 10, 20, 40, 90, and 1200 minutes.
As controls, in vitro tests were performed using the procedure described above, except that 0.18 mg of crystalline drug was placed in a microcentrifuge tube and mixed with 1.8 mL of PBS.

Data set [2] can be described thus: In vitro membrane permeation test, Drug 1 (Example 6). It is filed as physicochemical. The note with it: 37° C. As to the method:
Dispersion 14 was evaluated in vitro using a membrane permeation test as follows. An Accurel® PP 1E microporous polypropylene membrane was obtained from Membrana GmbH (Wuppertal, Germany). The membrane was washed in isopropyl alcohol and rinsed in methanol in a sonicating bath for 1 minute at ambient temperature, and then allowed to air dry at ambient temperature. The feed side of the membrane was then plasma-treated to render it hydrophilic by placing a sample of the membrane in a plasma chamber. The atmosphere of the plasma chamber was saturated with water vapor at a pressure of 550 mtorr. A plasma was then generated using radio frequency (RF) power inductively coupled into the chamber via annular electrodes at a power setting of 50 watts for 45 seconds. The contact angle of a drop of water placed on the surface of the plasma-treated membrane was about 40°. […]
To form the feed solution, a 1.2 mg sample of the dispersion was weighed into the feed reservoir. […] Samples were then diluted in 250 μL IPA and analyzed using HPLC. […]
The maximum flux of drug across the membrane (in units of μg/cm^2-min) was determined by performing a least-squares fit to the data from 0 to 60 minutes to obtain the slope, multiplying the slope by the permeate volume (5 mL), and dividing by the membrane area (4.9 cm^2). […]

A short description of data set [3]: Microcentrifuge dissolution test in MFD solution, crystallization inhibition (Example 5). It is filed as physicochemical. The settings on record: 37° C. As to the method:
First, Dispersions 12 and 13 were evaluated in an in vitro dissolution test using the microcentrifuge method described in Example 1 except that 2.04 mg of the dispersions were separately added to microcentrifuge tubes in duplicate. A 1.8-mL sample of a model fasted duodenal (MFD) solution was then added to the tube and the samples were quickly mixed using a vortex mixer for about 90 seconds. The theoretical maximum concentration of drug if all the drug dissolved was about 100 μgA/mL, where “μgA” refers to the active micrograms of Drug 5. Samples were collected and analyzed by HPLC using a Kromasil C4 column (250 mm×4.6 mm). The mobile phase consisted of 0.2 vol % H3PO4/acetonitrile in a volume ratio of 45/55. Drug concentration was calculated by comparing UV absorbance at 245 nm to the absorbance of Drug 5 standards.
As a control, […] of Drug 5 (in the HCl salt form) was added to a separate microcentrifuge tube so that the concentration of drug if all of the drug had dissolved would have been about 200 μgA/mL. […] The MDC90 values provided by Dispersions 12 and 13 were 3.5-fold and 3.0-fold that of the crystalline Drug 5 control, while the AUC90 values were 2.6-fold and 2.7-fold that of the crystalline control. Furthermore, the concentration of dissolved Drug 5 after 1200 minutes (C1200) was higher for Dispersions 12 and 13 than the crystalline control, with Dispersions 12 and 13 providing C1200 values that were 1.7- and 1.4-fold that of the crystalline control, respectively.

Data set [4] is described as follows: Solubility of drug in polymer by double-scan DSC (Example 3). It counts as physicochemical. As to the method: The solubilities of drug in HPMCAS polymers were determined using a double-scan differential scanning calorimetry (DSC) analysis of the dispersions as follows. The DSC analysis was carried out on either a TA Instruments DSC2920 or a Mettler DSC 821, calibrated with indium. DSC samples were prepared by weighing 2-4 mg of the dispersion in an aluminum pan with a pinhole. The sample was heated under nitrogen, at a rate of 5° C. per minute from about −20° C. to about 140° C. […] Heating above the Tg allows the drug to phase separate from the dispersion if the drug solubility in the polymer is lower than the drug loading.
The sample was then cooled and the sample was scanned a second time using the procedures outlined above. […] The amount of phase separated amorphous drug was estimated by comparing the magnitude of the heat capacity for the phase separated amorphous drug with the heat capacity for pure amorphous drug controls. […]

The nature of data set [5]: Aqueous solubility of the drugs used in the examples. The note with it: water.

As to `CCOC(=O)N1c2ccc(C(F)(F)F)cc2[C@@H](N(Cc2cc(C(F)(F)F)cc(C(F)(F)F)c2)C(=O)OC)C[C@H]1CC` [Crystalline Drug 1, [2R,4S]4-[(3,5-bis-trifluoromethyl-benzyl)-methoxycarbonyl-amino]-2-ethyl-6-trifluoromethyl-3,4-dihydro-2H-quinoline-1-carboxylic acid ethyl ester], in data set [1], the AUC90 is given as less than 88 min-μg/mL, the C1200 was less than 1 µg/mL and the “MDC,90” value is less than 1 µg/mL. Also, the “Maximum Flux of Drug 1” value in data set [2] (feed solution 0.5% NaTC/POPC (MFD), permeate 20 wt % decanol in decane) is reported as 0.076 μg/cm^2-min. In addition, the “Maximum Flux of Drug 1” value in data set [2] (feed solution 2.0 wt % NaTC/POPC (fed state model)) was found to be 0.13 μg/cm^2-min.
Take `CC[C@@H]1C[C@H](N(Cc2cc(C(F)(F)F)cc(C(F)(F)F)c2)C(=O)OC)c2cc(C(F)(F)F)ccc2N1C(=O)OC(C)C` [Crystalline Drug 3, [2R,4S]4-[(3,5-bis-trifluoromethyl-benzyl)-methoxycarbonyl-amino]-2-ethyl-6-trifluoromethyl-3,4-dihydro-2H-quinoline-1-carboxylic acid isopropyl ester]: in data set [1], the AUC90 is on record as less than 88 min-μg/mL, the C1200 was less than 1 µg/mL and the “MDC,90” value was less than 1 µg/mL.
In the case of `O=C1Cc2cc(CCN3CCN(c4nsc5ccccc45)CC3)c(Cl)cc2N1` [Crystalline Drug 5], in data set [3], the AUC90 was 1,700 min-μg/mL and the “MDC,90” value was found to be 22 µg/mL. In data set [3] (1200 minutes), this compound gave a C1200 of 9 µg/mL.
For orientation: solubility means how much of the substance goes into solution per volume. As for `CCOC(=O)N1c2ccc(C(F)(F)F)cc2[C@@H](N(Cc2cc(C(F)(F)F)cc(C(F)(F)F)c2)C(=O)OC)C[C@H]1CC` [Drug 1, [2R,4S]4-[(3,5-bis-trifluoromethyl-benzyl)-methoxycarbonyl-amino]-2-ethyl-6-trifluoromethyl-3,4-dihydro-2H-quinoline-1-carboxylic acid ethyl ester], the “solubility of the drug in the polymer” value is reported as 35-40 wt % in data set [4] (in the H grade of HPMCAS) and 25 to 30 wt % in data set [4] (in the M grade of HPMCAS). For the same compound, the solubility in data set [5] is less than 0.04 µg/mL.
For `CC[C@@H]1C[C@H](N(Cc2cc(C(F)(F)F)cc(C(F)(F)F)c2)C(C)=O)c2cc(C(F)(F)F)ccc2N1C(=O)OC(C)C` [Drug 2, [2R,4S]4-[acetyl-(3,5-bis-trifluoromethyl-benzyl)-amino]-2-ethyl-6-trifluoromethyl-3,4-dihydro-2H-quinoline-1-carboxylic acid isopropyl ester], the solubility in data set [5] was less than 1 µg/mL.
The same measure, in the same setting: the value for `CC[C@@H]1C[C@H](N(Cc2cc(C(F)(F)F)cc(C(F)(F)F)c2)C(=O)OC)c2cc(C(F)(F)F)ccc2N1C(=O)OC(C)C` [Drug 3, [2R,4S]4-[(3,5-bis-trifluoromethyl-benzyl)-methoxycarbonyl-amino]-2-ethyl-6-trifluoromethyl-3,4-dihydro-2H-quinoline-1-carboxylic acid isopropyl ester] was less than 1 µg/mL.
Still for that read-out and setting: the value for `CCc1cc(Oc2cccc(N(Cc3cccc(OC(F)(F)C(F)F)c3)C[C@@H](O)C(F)(F)F)c2)ccc1Cl` [Drug 4, (2R)-3-[[3-(4-chloro-3-ethylphenoxy)phenyl][[3-(1,1,2,2-tetrafluoroethoxy)phenyl]methyl]amino]-1,1,1-trifluoro-2-propanol] was less than 1 µg/mL; that for `O=C1Cc2cc(CCN3CCN(c4nsc5ccccc45)CC3)c(Cl)cc2N1` [Drug 5] was < 0.1 µg/mL and ~10 µg/mL.
